In patent US12661355B2, “Compounds and methods for inducing UCP1 expression” (The Regents of the University of California, priority 2020, dated 2026):

Legend:
AKAP1 = molecular target: T1, AKAP1 (Mus musculus, UniProt O08715); assay: Drug Affinity Responsive Target Stability (DARTS) in BAT or brown adipocyte extracts, AKAP1; format: binding; settings: mouse brown adipocyte extracts, 1 h, 20 μM (CL316,243 20 nM)
T1 construct: from tissue; host or cells: mouse brown adipose tissue (BAT) lysate; also mouse brown adipocyte extracts
T1 sequence (O08715 30-857): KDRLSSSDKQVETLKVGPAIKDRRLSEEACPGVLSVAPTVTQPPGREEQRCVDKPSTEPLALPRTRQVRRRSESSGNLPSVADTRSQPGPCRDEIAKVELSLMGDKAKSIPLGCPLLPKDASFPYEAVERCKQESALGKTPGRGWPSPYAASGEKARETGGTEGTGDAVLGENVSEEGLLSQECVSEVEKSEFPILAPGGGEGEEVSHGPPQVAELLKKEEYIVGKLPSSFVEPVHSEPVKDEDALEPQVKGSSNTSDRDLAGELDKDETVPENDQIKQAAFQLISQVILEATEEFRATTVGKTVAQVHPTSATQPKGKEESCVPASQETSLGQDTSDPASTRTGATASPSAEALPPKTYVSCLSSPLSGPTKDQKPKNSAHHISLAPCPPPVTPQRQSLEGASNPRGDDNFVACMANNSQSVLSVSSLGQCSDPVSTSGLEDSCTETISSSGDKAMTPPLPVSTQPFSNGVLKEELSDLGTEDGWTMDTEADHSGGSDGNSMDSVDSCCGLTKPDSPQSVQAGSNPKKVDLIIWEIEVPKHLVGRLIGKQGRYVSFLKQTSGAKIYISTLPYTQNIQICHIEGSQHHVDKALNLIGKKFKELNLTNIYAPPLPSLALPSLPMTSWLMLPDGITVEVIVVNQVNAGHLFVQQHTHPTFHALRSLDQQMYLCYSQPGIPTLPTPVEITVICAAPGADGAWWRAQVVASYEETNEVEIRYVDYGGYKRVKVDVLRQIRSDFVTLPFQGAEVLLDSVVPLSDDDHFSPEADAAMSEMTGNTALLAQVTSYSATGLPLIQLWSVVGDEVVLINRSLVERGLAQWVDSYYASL
Protocol: […] assays were performed according to known methods. Briefly, BAT or cells within a 10 cm dish were lysed with 600 μl M-PER buffer containing protease and phosphatase inhibitors. Debris was pelleted by centrifugation at 18,000 g for 10 min at 4° C., and the lysates were harvested and supplemented with TNC buffer (50 mM Tris-HCl, 50 mM NaCl, 10 mM CaCl2). The lysates were split into two tubes and treated with either vehicle or 20 μM Z160 for 1 h at room temperature. For experiment with BAT, 100 μg of lysate was incubated with different Z160 concentrations. Different concentrations of pronase (from 1:100 to 1:10,000 dilution from a 1.25 mg/ml pronase stock) were incubated with the samples for 30 min at room temperature and the reaction was stopped with SDS loading buffer followed immediately by heating at 70° C. for 10 min. Protein lysates were separated by SDS-PAGE and transferred to a nitrocellulose membrane. After blocking in 5% milk, 0.1% Tween-20 in Tris-buffered saline (TBS), primary antibody was incubated overnight at 4° C. in 5% bovine serum albumin and 0.1% Tween-20 in TBS. Primary antibodies against AKAP1 (5203, Cell Signaling), AKAP13 (39715, One World Lab), GAPDH (GTX100118, Genetex), OPA1 (39557, One World Lab), PKA C-α (4782, Cell Signaling), PKA RII-β (ab75993, Abcam), were used at 1:2000. A goat anti-rabbit secondary antibody (sc-2030, Santa Cruz Biotechnology, Inc) was used at a 1:10,000 dilution for 1 h at room temperature in 5% milk and 0.1% Tween-20 in TBS.
The PKA tetramer consists of two catalytic and two regulatory subunits. In the mouse, these are catalytic subunits C-α and C-β, and regulatory subunits RI and RII, each with α and β isoforms (RI-α, RI-β, RII-α, RII-β). PKA is also bound to a family of anchoring proteins, A-kinase anchoring proteins (AKAPs), which allow the compartmentalization of cAMP signaling. To investigate whether Z160 binds PKA complex proteins, two techniques were applied both of which rely on ligand-induced alterations in protein stability: Cellular Thermal Shift Assay (CETSA) and Drug Affinity Responsive Target Stability (DARTS). CETSA is based on the principle that ligand binding will change the temperature at which a protein starts to unfold and aggregate, while DARTS relies on the protection of a protein from proteolysis upon specific binding to a small molecule.
To provide further evidence for an interaction between Z160 and AKAP1, DARTS assays were employed. Lysates from brown fat were treated with different Z160 concentrations for 1 h followed by pronase digestion and immunoblotting. […] The effect of Z160 on AKAP1 was confirmed using mouse brown adipocyte extracts (FIG. 15A).

PKA = PKA activity ELISA, cell or tissue lysates treated 30 min; format: biochemical, mouse; settings: cell lysates, 500 μM H-89 10 min, then 50 μM Z160 30 min
Protocol: PKA kinase activity was measured with an ELISA that utilized a synthetic peptide as substrate for PKA and a polyclonal antibody that recognizes the phosphorylated form of the substrate (ab139435, Abcam). PKA activity was measured in lysates from cultured brown adipocytes, mouse BAT, or liver. Cells and tissues were lysed in 20 mM MOPS, 5 mM EGTA, 2 mM EDTA, and 0.1% Triton X-100 supplemented with protease and phosphatase inhibitor as described above. Protein concentration was determined by Bradford assay and 10 μg of cells, 0.25 μg of BAT extract, or 0.5 μg of liver extract were assessed for PKA activation according to the manufacturer's instruction, with minor changes. Briefly, vehicle or Z160 was incubated with brown adipocyte cells overnight or with protein lysates for 30 min, followed by one wash before the primary antibody, 60 min incubation with the primary antibody, 30 min incubation with the secondary antibody, and by 10 min washing. Absorbance was measured after the substrate was added for 20-60 min, depending the intensity of the signal.

Ucp1 = assay: Gene expression by qPCR in immortalized brown adipocytes; format: cell-based, mouse; settings: for effect of antagonist on induction of Ucp1 mRNA by Z160: 20 μM antagonist 1 h prior to and during overnight 10 μM Z160
Protocol: Primary brown adipocytes were isolated according to known methods. An established mouse brown adipocyte cell line was obtained from Dr. Bruce Spiegelman (Dana-Farber Cancer Institute, Boston, USA). To differentiate primary and immortalized brown adipocytes, cells were grown until confluency in DMEM containing 10% FBS, 25 mM glucose 1 mM pyruvate, 2 mM glutamine, 20 nM insulin, 1 nM T3, and antibiotics. Once confluent (day 0), differentiation was induced by supplementing the medium with 0.5 mM IBMX, 0.5 μM dexamethasone, and 0.125 mM indomethacin, for 2 days. Differentiation was continued in the original medium (without IBMX, dexamethasone and indomethacin) for 7-10 days.
TScreening was conducted at the UCLA Molecular Screening Shared Resource using automated instruments Immortalized brown adipocytes were differentiated in T225 flasks and plated in Matrix 384-well plates (26,000 cells per well) with white flat bottom (ThermoScientific) using trypsin and collagenase type II (Sigma C6885). The small molecule libraries screened were a BioMol library (204 compounds), an FDA-approved drug library (1120 compounds), a Microsource spectrum collection (2000 compounds), and a druggable compound set (8000 compounds). Molecules were delivered at 10 μM final concentration in DMSO. The screen was performed in duplicate on different days. After 18 h, luciferase activity was measured with Bright-Glo luciferase assay system and an LJL instrument. Data were normalized to the basal response (100% activity) in the presence of DMSO. Following the primary screen, 92 molecules were selected for validation and used to treat brown adipocyte cells plated in a 96-well plate overnight. RNA was extracted with an SV 96 Total RNA Isolation System (Promega). Compounds used for follow-up studies were identified using search tools available from Molport (molport.com), and ordered from the same company.
(§1) RNA levels were measured by qPCR according to known methods. Briefly, RNA was extracted with TRIzol (Invitrogen) and reverse transcribed with iScript (Bio-Rad). Real-time PCR analysis was performed with a CFX Connect (Bio-Rad).
Mouse RNA levels were measured by qPCR according to known methods. Data were normalized to B2m and Tbp reference genes. Human RNA was extracted using an RNA Mini Plus kit (Zymo) and gene expression determined by Taqman assay. The 1-step qPCR was run on a QuantStudio 12K Flex Real Time PCR System (ThermoFisher) using the following protocol: 50° C. for 5 minutes, 95° C. for 20 seconds, 40 cycles of 95° C. for 15 seconds and 60° C. for 60 seconds. Data were normalized to PPIA and PSMB2 reference genes. For global gene expression analysis, RNA isolated from brown adipocytes treated with compounds as indicated (four biological replicates) was hybridized to Illumina mouse Ref 8 V2.0 bead chips at the University of California, Los Angeles Neuroscience Genomics Core as previously described. Data were processed with GenomeStudio V2011.1 using the quantile normalization, background subtraction, and a present call of P<0.05.

NRVM [1] = assay: Respirometry (reserve capacity) in neonatal rat ventricular myocytes; format: cell-based; settings: 48 h 100 μM isoproterenol followed by 24 h rest
Protocol: (§2) Rat H9c2 cells were grown in DMEM supplemented with 10% FBS, 25 mM glucose, 1 mM pyruvate, and 2 mM glutamine Neonatal rat ventricular myocytes (NRVM) were isolated and cultured as previously described. Briefly, 2-4 day old rats were sacrificed and myocytes and fibroblasts were isolated and separated using a Percoll density gradient. Following isolation, NRVMs were plated on gelatin-coated plates in DMEM containing 10% FBS, 25 mM glucose, 1 mM pyruvate, and 2 mM glutamine The next day, FBS was replaced by 1× insulin-transferrin-selenium supplement and the cells were treated with vehicle or 10 μM Z160 for 2 days, with or without 60 μM isoproterenol or 50 μM phenylephrine.
NRVM were seeded in a Seahorse Bioscience XF96 plate and cultured for 48 h in 10% FBS. Next, cells were treated with 100 μM ISO for 48 h, followed by 24 h of 10 μM Z160. Oxygen consumption rate (OCR) was recorded in a Seahorse Bioscience XF96 analyzer before and after the sequential injection of 0.75 μM oligomycin, 0.75 μm FCCP and 0.75 μM rotenone/myxothiazol. Reserve capacity was calculated as the difference between basal respiration and FCCP response.

NRVM [2] = assay: Hypertrophic gene expression in neonatal rat ventricular myocytes; format: cell-based; settings: agonist alone, 48 h
Protocol: as §2, §1

C[C@H](Cc1ccc2c(c1)OC(C(=O)[O-])(C(=O)[O-])O2)NC[C@H](O)c1cccc(Cl)c1.[Na+].[Na+] [CL316,243, reference compound]
effect on AKAP1 (pronase susceptibility) (AKAP1): not observed

O=S(=O)(NCCNC/C=C/c1ccc(Br)cc1)c1cccc2cnccc12 [H-89, reference compound]
PKA activity and Z160 response after pre-incubation with PKA antagonist (PKA): reduced the PKA activity and negated the Z160 response | effect of antagonist on Z160 enhancement of Cidea and Elovl3 expression (Ucp1; 20 μM H-89 1 h prior to and during overnight 10 μM Z160): blunted | effect of antagonist on induction of Ucp1 mRNA by Z160 (Ucp1): blocked the effect of Z160

Oc1ccc(-c2nc(-c3ccncc3)c(-c3ccc(F)cc3)[nH]2)cc1 [SB202190, reference compound]
effect of antagonist on induction of Ucp1 mRNA by Z160 (Ucp1): blocked the effect of Z160

CC(C)NCC(O)c1ccc(O)c(O)c1 (stereo not drawn) [isoproterenol]
reserve capacity of mitochondrial respiration (NRVM [1]): decreased the reserve capacity | expression of Nppa and Nppb (NRVM [2]): induced the expression | expression of Pln (NRVM [2]): reduced expression | expression of Nppa and Nppb (NRVM [2]; listed as ISO): increase | expression of Pln (NRVM [2]; listed as ISO): decreasing

CNC[C@H](O)c1cccc(O)c1 [phenylephrine]
expression of Nppa and Nppb (NRVM [2]): induced the expression | expression of Pln (NRVM [2]): reduced expression | expression of Nppa and Nppb (NRVM [2]; listed as PE): increase | expression of Pln (NRVM [2]; listed as PE): decreasing

c1ccc(CC2=NCCN2)cc1 [tolazoline, reference compound]
effect of antagonist on induction of Ucp1 mRNA by Z160 (Ucp1): did not prevent
